Laboratory results as given in patent US9499486B2, “Kinase inhibitor” (RESPIVERT LIMITED, priority 2014, dated 2016).
Values joined by “and” are separate entries in the source; they are usually repeats but may differ in a detail not shown here. Equal values may be shown once. Where a name gives a salt, the structure may show the parent alone. Read-outs that look alike come from different tables or passages of the source.

Assays:
non-mutant kinases = type: binding; settings: for number of individual kinase hits, S(1): % Ctrl <1; for number of individual kinase hits, S(10): % Ctrl <10; for number of individual kinase hits, S(35): % Ctrl <35
From the text: These assays may be conducted by DiscoverX (formerly Ambit; San Diego, Calif.).

Jurkat cells = experiment: Cell cytotoxicity assay (assay r); type: cell-based, human; settings: 24 hours
Protocol: 1×10^5 Jurkat cells (immortalised human T lymphocytes) are added to the appropriate number of wells of a 96 well plate in 100 μL of media (RPMI supplemented with 10% foetal bovine serum). 1 μL of DMSO control (final concentration 1.0% v/v) or test compound (final concentration 20, 5 or 1 μg/mL) is added to the wells and incubated at 37° C., 5% CO2. After 24 hours, the plate is centrifuged at 1200 rpm for 3 minutes and the supernatant discarded. Cells are then resuspended in 150 μL (final concentration 7.5 μg/mL) of propidium iodide (PI) in PBS and incubated at 37° C., 5% CO2 for 15 minutes. After 15 minutes, cells are analysed by flow cytometry (BD accuri) using the FL3 window. The % viability is calculated as the % of cells that are PI negative in the test wells normalised to the DMSO control.

[1] = Solubility in fasted-state simulated colonic fluid (FaSSCoF); type: physicochemical; settings: pH 6.5, 25° C., 24 h; for solubility thermodynamic at 24 h: fasted-state simulated colonic fluid (FaSSCoF), 25 °C, pH 6.5, fassgf or other biorelevant, thermodynamic from solid
Protocol: The solubility of the compound of the invention in FaSSCoF at pH 6.5 is determined using a modification of a previously-reported procedure (Vertzoni, M., et al. Pharm. Res. 2010, 27, 2187-2196). In place of the bile salt extract employed in the original procedure (which extract is no longer available), the modified procedure uses a mixture of sodium taurochlorate (0.15 g), glycocholic acid (0.15 g), ursodeoxycholic acid (0.05 g), cholic acid (0.05 g), and glycodeoxycholic acid (0.05 g). These five bile acids are ground together with a mortar and pestle to produce a fine white powder that is incorporated into the FaSSCoF, as outlined below.
FaSSCoF medium: Tris(hydroxymethyl)aminomethane (Tris; 0.275 g) and maleic acid (0.44 g) are dissolved in water (35 mL) to give a solution whose pH is adjusted to 6.5 by treatment with 0.5M NaOH (ca. 12 mL). The solution is then made up to 50 mL with water. A portion of this Tris/maleate buffer solution (ca. 25 mL) is added to a 0.5 L round-bottomed flask, before being treated with 0.00565 g of the bile acid mixture described above. Solutions of phosphatidylcholine (0.0111 g) in DCM (0.15 mL) and palmitic acid (0.0013 g) in DCM (0.15 mL) are added, then the organic solvent is evaporated off under reduced pressure at 40° C. until a clear solution, with no perceptible DCM odour, is achieved. The volume of the evaporated solution is adjusted to 50 mL by addition of the remainder of Tris/maleate buffer, then BSA (0.115 g) is added, before being dissolved by gentle agitation.
Solubility Determination: Test compounds are suspended in the pH 6.5 FaSSCoF medium to give a maximum final concentration of 2-10 mg/mL. The suspensions are equilibrated at 25° C. for 24 h, before being filtered through a glass fibre C filter. The filtrates are then diluted as appropriate for injection and quantification by HPLC with reference to a standard. Different volumes of the standard, diluted and undiluted sample solutions are injected and the solubilities are calculated using the peak areas determined by integration of the peak found at the same retention time as the principal peak in the standard injection.

[2] = Systemic pharmacokinetics and total colon tissue distribution after single oral administration; type: in vivo, mouse; settings: male, C57BL/6, mouse, mice, oral 5 mg/kg, compound 1 measured
Protocol: Studies were conducted by Sai Life Sciences (Hinjewadi, Pune, India) to investigate the systemic pharmacokinetics and total colon tissue distribution of the compound of the invention. In particular, pharmacokinetic studies were carried out in male C57BL/6 mice following a single oral administration of the compound.

[3] = Stability of pharmaceutical formulations (1 mg/mL solutions); type: physicochemical; settings: for Original Purity: 1 mg/mL in pH 7.2 phosphate buffer, 4.5% mannitol, 3% polyoxyl 40 stearate, before storage; for Osmolality / pH: 1 mg/mL stock solution; for Purity at week n = 1 / Purity at week n = 2 / Purity at week n = 4: 1 mg/mL solution
Protocol: The samples were sonicated to achieve clear solutions having the following properties: Osmolality (mOsm/kg): 310 (Na), 314 (HCl); pH: 7.00 (Na), 7.05 (HCl). 0.5 mL of the stock solutions were diluted to 1 mL with 20% DMSO in water & injected for purity analysis by HPLC. The remaining stock solutions were then split into aliquots of 0.5 mL in HPLC vials, and stored at various conditions in duplicate. Samples were stored at 5 and 25° C., before being analysed by HPLC at 1, 2 and 4 weeks. Separate samples were stored at 40° C. and analysed at 4 weeks.

[4] = read-out: pH 6.5 FaSSCoF Solubility Run 1
[5] = plasma, read-out: Mean plasma concentration
[6] = total colon, read-out: Mean total colon level
[7] = listed as Example 1, sodium salt
[8] = stored at 5 ° C., listed as Example 1, sodium salt
[9] = stored at 25 ° C., listed as Example 1, sodium salt
[10] = listed as Example 1, hydrochloride salt
[11] = stored at 5 ° C., listed as Example 1, hydrochloride salt
[12] = stored at 25 ° C., listed as Example 1, hydrochloride salt

COCC(=O)Nc1cc(Oc2ccc(NC(=O)Nc3cc(C(C)(C)C)nn3-c3ccc(C)cc3)c3ccccc23)ccn1 [Reference Compound, reference compound]
number of individual kinase hits, S(1) (non-mutant kinases; 50 nM): 7
number of individual kinase hits, S(10) (non-mutant kinases; 50 nM): 32
number of individual kinase hits, S(35) (non-mutant kinases; 50 nM): 67
number of individual kinase hits, S(1) (non-mutant kinases; 500 nM): 45
number of individual kinase hits, S(10) (non-mutant kinases; 500 nM): 105
number of individual kinase hits, S(35) (non-mutant kinases; 500 nM): 143
% Viability at 1 μg/mL (Jurkat cells; 1 μg/mL): 23.5%
% Viability at 5 μg/mL (Jurkat cells; 5 μg/mL): 18.9%
% Viability at 20 μg/mL (Jurkat cells; 20 μg/mL): 17.3%

COc1cc(Nc2cc(Oc3ccc(NC(=O)Nc4cc(C(C)(C)C)cc(NS(C)(=O)=O)c4OC)c4ccccc34)ccn2)ccc1C(=O)O [1 (sodium salt), 4-((4-((4-(3-(5-(tert-Butyl)-2-methoxy-3-(methylsulfonamido)phenyl)ureido)naphthalen-1-yl)oxy)pyridin-2-yl)amino)-2-methoxybenzoic acid]
solubility thermodynamic at 24 h [1, 4]: 31 µg/mL
pH 6.5 FaSSCoF Solubility Run 2 [1]: 0.032 mg/mL
pH 6.5 FaSSCoF Solubility Run 3 [1]: 0.020 mg/mL
pH 6.5 FaSSCoF Solubility Run 4 [1]: 0.025 mg/mL
concentration at 0.5 h [2, 5]: 44.9 ng/mL
concentration at 1 h [2, 5]: 49.2 ng/mL
concentration at 2 h [2, 5]: 13 ng/mL
concentration at 4 h [2, 5]: 5.2 ng/mL
concentration at 6 h [2, 5]: 1.9 ng/mL
concentration at 8 h [2, 5]: 0.6 ng/mL
concentration at 12 h [2, 5]: 5.3 ng/mL
concentration at 24 h [2, 5]: 0 ng/mL
concentration at 0.5 h [2, 6]: 4.3 ng/g
concentration at 1 h [2, 6]: 9.3 ng/g
concentration at 2 h [2, 6]: 52.4 ng/g
concentration at 4 h [2, 6]: 10400 ng/g
concentration at 6 h [2, 6]: 4050 ng/g
concentration at 8 h [2, 6]: 12900 ng/g
concentration at 12 h [2, 6]: 535 ng/g
concentration at 24 h [2, 6]: 41.4 ng/g
Original Purity [3, 7]: 98.6% and 98.5%
Osmolality [3, 7]: 310 mOsm/kg
pH [3, 7]: 7.00
Purity at week n = 1 [3, 8]: 98.2% and 98.4%
Purity at week n = 2 [3, 8]: 98.4% and 98.5%
Purity at week n = 4 [3, 8]: 98.3% and 98.4%
Purity at week n = 1 [3, 9]: 98.4% and 98.5%
Purity at week n = 2 [3, 9]: 98.1%
Purity at week n = 4 [3, 9]: 97.6%
Purity at week n = 4 ([3]; stored at 40 ° C., listed as Example 1, sodium salt): 76.0% and 73.7%

C#Cc1cc(Nc2nccc(Oc3ccc(NC(=O)Nc4cc(C(C)(C)C)nn4-c4ccc(C)cc4)c4ccccc34)n2)cc(C(=O)NCCOCCOCCOC)c1 [Reference Compound A, 3-((4-((4-(3-(3-(tert-butyl)-1-(p-tolyl)-1H-pyrazol-5-yl)ureido)naphthalen-1-yl)oxy)pyrimidin-2-yl)amino)-5-ethynyl-N-(2-(2-(2-methoxyethoxy)ethoxy)ethyl)benzamide, reference compound]
solubility thermodynamic at 24 h [1, 4]: < 1 µg/mL
solubility thermodynamic at 24 h ([1]; read-out: pH 6.5 FaSSCoF Solubility Run 2): < 1 µg/mL

COc1cc(Nc2cc(Oc3ccc(NC(=O)Nc4cc(C(C)(C)C)cc(NS(C)(=O)=O)c4OC)c4ccccc34)ccn2)ccc1C(=O)O [1 (hydrochloride salt), 4-((4-((4-(3-(5-(tert-Butyl)-2-methoxy-3-(methylsulfonamido)phenyl)ureido)naphthalen-1-yl)oxy)pyridin-2-yl)amino)-2-methoxybenzoic acid]
solubility thermodynamic at 24 h [1, 4]: 16 µg/mL
pH 6.5 FaSSCoF Solubility Run 2 [1]: 0.015 mg/mL
Original Purity [3, 10]: 98.1%
Osmolality [3, 10]: 314 mOsm/kg
pH [3, 10]: 7.05
Purity at week n = 1 [3, 11]: 98.2%
Purity at week n = 2 [3, 11]: 98.1% and 98.0%
Purity at week n = 4 [3, 11]: 97.9% and 98.0%
Purity at week n = 1 [3, 12]: 98.0%
Purity at week n = 2 [3, 12]: 97.7% and 97.6%
Purity at week n = 4 [3, 12]: 97.2% and 97.4%
Purity at week n = 4 ([3]; stored at 40 ° C., listed as Example 1, hydrochloride salt): 79.2% and 80.4%
